Laboratory results as given in publication PMC5408701, “Isomaltooligosaccharide-binding structure of Paenibacillus sp. 598K cycloisomaltooligosaccharide glucanotransferase” (Bioscience Reports, 2017).

Target: T1, PsCITase (core domain) (Paenibacillus sp. 598K, UniProt G9MBW2)
T1 construct: gene cit; core domain 41-739 (N-terminal 40 and C-terminal 235 residues, incl. CBM35-2, removed), N-terminal pET15b His tag (numbered Met21-Met40), E. coli BL21(DE3); full length 972 residues
Experiment: X-ray crystallography, crystal soaked with […] CI-7, […] A
Assay type: binding

T1 sequence (G9MBW2 entry or part of it): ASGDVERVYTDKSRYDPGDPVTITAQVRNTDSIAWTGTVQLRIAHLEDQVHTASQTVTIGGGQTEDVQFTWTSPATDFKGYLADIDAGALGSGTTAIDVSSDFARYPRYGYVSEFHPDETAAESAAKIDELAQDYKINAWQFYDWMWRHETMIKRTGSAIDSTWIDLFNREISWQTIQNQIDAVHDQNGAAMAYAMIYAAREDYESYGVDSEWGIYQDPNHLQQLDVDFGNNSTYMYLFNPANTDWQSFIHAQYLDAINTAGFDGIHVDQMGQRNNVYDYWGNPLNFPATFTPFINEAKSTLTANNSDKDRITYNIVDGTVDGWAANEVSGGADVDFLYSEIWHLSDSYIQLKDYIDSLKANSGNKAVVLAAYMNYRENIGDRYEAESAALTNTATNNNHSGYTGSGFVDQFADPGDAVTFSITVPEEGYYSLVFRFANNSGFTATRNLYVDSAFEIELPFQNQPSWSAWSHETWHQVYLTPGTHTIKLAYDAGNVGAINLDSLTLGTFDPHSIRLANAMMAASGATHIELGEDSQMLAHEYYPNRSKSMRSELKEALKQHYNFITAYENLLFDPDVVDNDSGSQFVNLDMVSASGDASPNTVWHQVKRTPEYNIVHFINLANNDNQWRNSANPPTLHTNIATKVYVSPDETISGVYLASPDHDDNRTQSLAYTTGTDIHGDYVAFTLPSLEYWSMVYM

O[C@@H]1[C@@H](O)[C@H]2OC[C@H]3O[C@H](OC[C@H]4O[C@H](OC[C@H]5O[C@H](OC[C@H]6O[C@H](OC[C@H]7O[C@H](OC[C@H]8O[C@H](OC[C@@H](O2)[C@H]1O)[C@H](O)[C@@H](O)[C@@H]8O)[C@H](O)[C@@H](O)[C@@H]7O)[C@H](O)[C@@H](O)[C@@H]6O)[C@H](O)[C@@H](O)[C@@H]5O)[C@H](O)[C@@H](O)[C@@H]4O)[C@H](O)[C@@H](O)[C@@H]3O [CI-7, cycloisomaltoheptaose]
X-ray crystallography, crystal soaked with 5% CI-7, 2.60 A (variable loop (canonical) site of PsCBM35-1, Trp507, on crystallographic two-fold axis, averaged density, soaked CI-7 is hydrolysed at the catalytic site): The bound sugar appeared to be soaked CI-7 with the cyclic sugar chain structure

OC[C@H]1O[C@H](OC[C@H]2O[C@H](OC[C@H]3O[C@H](OC[C@H]4O[C@H](OC[C@H]5O[C@H](OC[C@H]6O[C@H](OC[C@H]7OC(O)[C@H](O)[C@@H](O)[C@@H]7O)[C@H](O)[C@@H](O)[C@@H]6O)[C@H](O)[C@@H](O)[C@@H]5O)[C@H](O)[C@@H](O)[C@@H]4O)[C@H](O)[C@@H](O)[C@@H]3O)[C@H](O)[C@@H](O)[C@@H]2O)[C@H](O)[C@@H](O)[C@@H]1O (some centres unmarked) [IG-7, isomaltoheptaose]
X-ray crystallography, crystal soaked with 5% CI-7, 2.60 A (catalytic cleft, subsites -7 to -1, hydrolysis product of soaked CI-7, Glc-1 density ambiguous): the bound CI-7 was observed as the cleaved linear form like isomaltoheptaose (IG-7)
